According to patent US6924288B2, “Enantiomerically pure opioid diarylmethylpiperzine and methods of using same” (priority 2001, dated 2005):

Columns and labels:
κ opioid receptor = molecular target: T1, κ opioid receptor (Cavia porcellus, UniProt P41144); experiment: Radioligand binding, [3H]U69593 competition, guinea pig cerebellum membranes; details: read-out: Guinea Pig Brain Membrane K1 (nM) κ
T1 construct: tissue Pel-Freeze Biological Inc. (Rogers, Ark.); host or cells: guinea pig cerebellum membranes
Protocol: (§1) Two stereoisomerically related racemic mixtures and inclusive enantiomers were evaluated for in vitro opioid receptor affinity in rat brain membranes (μ and δ opioid) and guinea pig cerebellum (κ opioid receptor). Membranes for radioligand binding were prepared from either rat whole brain or guinea pig cerebellum, supplied by Pel-Freeze Biological Inc. (Rogers, Ark.). Tissues were homogenized in 50 mM TRIS (Tris[hydrooxymethyl]aminomethane) buffer (pH 7.4) containing 50 ug/ml soybean trypsin inhibitor, 1 mM EDTA (Ethylenediaminetetraacetic acid), and 100 μM PMSF (Phenylmethylsulfonyl fluoride). The homogenized brain tissues were centrifuged at 500×g for 30 minutes (4° C.) to remove large debris. The supernatant was polytronically sonicated for 10 seconds (P.E. setting of 2, 4° C.). Sucrose solution was then added to a final concentration of 0.35 M using a 10 mM TRIS-Sucrose buffer (pH 7.4) and the brain membranes were then centrifuged at 40,000×g for 30 minutes (4° C.). The membrane pellets were then washed twice in 10 mM TRIS buffer (pH 7.4) containing 50 μg/ml soybean trypsin inhibitor, 1 mM EDTA, and 100 μM PMSF.
(§2) Radioligand binding assays were performed in 10 mM TRIS buffer (pH 7.4) containing 50 μg/ml soybean trypsin inhibitor, 1 mM EDTA, 5 mM MgCl2, and 100 μM PMSF. Tritium-labeled DAMGO (μ), Deltorphin II (δ), or U69593 (κ) purchased from New England Nuclear were used as ligands in competitive experiments (2-3×10^−10 M final concentrations) with non-specific binding defined by 0.5×10^−6 M Naloxone (purchased from SIGMA Chemical Co.). All binding assays were run at room temperature for 90 minutes and then terminated by rapid filtration on GF/C glass fiber filters (Whatman, Hillsboro, Oreg.) with 50 mM TRIS buffer (4° C., pH 7.4) employing a Brandel Semi-automatic Cell Harvester (Model M48, Brandel, Gaithersburg, Md.). The filters were washed twice with 50 mM TRIS buffer (4° C., pH 7.4) and the filters were placed in liquid scintillation cocktail and the bound radioactivity counted on a Beckman LS 6500 scintillation counter. The potency of the compounds in inhibiting the binding of radiolabelled DAMGO (μ), Deltorphin II (δ), or U69593 (κ) was determined from full concentration-effect curves. With the computer program Prism (GraphPad Software Inc., San Diego, Calif.) the IC50 values were determined using a one-site nonlinear regression analysis of the radioligand binding data. The IC50 values were then converted to Ki values using the Cheng-Prusoff equation. (Cheng Y and Prusoff W H (1973) Relationship between the inhibition constant (K1) and the concentration of inhibitor which causes 50 percent inhibition (I50) of a enzymatic reaction. Biochem Pharm 22:3099-3108.)

μ opioid receptor = molecular target: T2, μ opioid receptor (Rattus norvegicus, UniProt P33535); experiment: Radioligand binding, [3H]DAMGO competition, rat brain membranes; details: rat brain membranes, [3H]DAMGO; read-out: Rat Brain Membrane K1 (nM) μ
T2 construct: tissue Pel-Freeze Biological Inc. (Rogers, Ark.); host or cells: rat whole brain membranes
Protocol: as §1, §2

[1] = molecular target: T3, Mu receptor, mouse vas deferens (Mus musculus, UniProt P42866); experiment: Mouse vas deferens, inhibition of electrically induced contractions, mu (with TIPP and nor-BNI); assay type: cell-based; details: in presence of 3 μM TIPP and 15 nM nor-BNI; read-out: Mouse Vas Deferens ED50 (nM) μ
T3 construct: Mouse vasa deferentia (MVD), CD-1 strain, Harlan, Raleigh, N.C.) were removed from mice; tissue Harlan, Raleigh, N.C; (animals); host or cells: mouse vas deferens, CD-1 strain

[2] = molecular target: T4, Delta receptor, mouse vas deferens (Mus musculus, UniProt P32300); experiment: Mouse vas deferens, inhibition of electrically induced contractions, delta; assay type: cell-based; details: read-out: Mouse Vas Deferens ED50 (nM) δ
T4 construct: Mouse vasa deferentia (MVD), CD-1 strain, Harlan, Raleigh, N.C.) were removed from mice; tissue Harlan, Raleigh, N.C; (animals); host or cells: mouse vas deferens, CD-1 strain
Protocol: The compound of formula (I) and compounds 1, 3, 4, 5 and 6 as identified above, were evaluated for in vitro opioid receptor activity in various receptor systems, including mouse vas deferens (Mouse Vas Deferens ED50), and guinea pig ileum (Guinea Pig Ileum ED50). The assay procedures used for such determinations of receptor activity are set out below.
In vitro bioassays: Mouse vasa deferentia (MVD), CD-1 strain, Harlan, Raleigh, N.C.) were removed from mice and suspended between platinum electrodes with 0.5 g of tension in organ bath chambers containing a modified Mg^++ free Krebs buffer of the following composition (millimolar): NaCl, 117.5; KCl, 4.75; CaCl2, 2.6; KH2PO4, 1.20; NaHCO3, 24.5; and glucose, 11. The buffer was saturated with 95% O2/5% CO2 and kept at 37° C. Tissues were stimulated at supramaximal voltage with 10-Hz pulse trains for 400-msec.; train interval 10 seconds; and 1.0 msec pulse duration at maximal voltage. Delta receptor activity was determined by adding appropriate concentrations of test compound to organ baths and allowing a maximal response before addition of the next higher concentration.
The ED50 values were extrapolated from curves showing the dose concentration plotted against the response (J. A. H. Lord, A. A. Waterfield, J. Hughes, H. W. Kosterlitz, Nature 267, 495, (1977)).

rats [3] = experiment: Tail pinch test for analgesia in rats; assay type: in vivo; details: rat; for Analgesia (delay of response to tail pinch): 0.30 mg/kg i.v., cutoff 20 sec; for ED50: intravenous, 20 sec cutoff; for ED50 / Analgesic effect in words: tail pinch; for Analgesic effect in words: i.v., FIGS. 1-6
Protocol: (§3) Analgesia was assayed in rats using the tail pinch test with simultaneous monitoring of capillary blood gases (pCO2). During this testing period respiratory depression values were also obtained. Male rats (Wistar Hannover 200-300 g) were anesthetized with 2% isoflurane (J. A. Webster, Inc., Sterling, Mass. The femoral artery was cannulated with PE50 tubing for blood sampling. The external jugular vein was also cannulated with Silastic tubing for drug injection. After surgery, anesthetic gases were removed and the rat was allowed to rest in a plastic restrainer for 60 minutes to establish baseline values of blood gases.
(§4) The compounds 1-6 were administered intravenous. Nociceptive response and respiratory values were obtained for a 1-2 hour period. The femoral artery cannulation was used to draw arterial blood into a syringe pre-wetted with heparin. Samples were then analyzed with a blood gas analyzer (Ph/Gas Analyzer Synthesis 25 Model, Instrumentation Laboratory) to assess respiratory depression effects. The volume of blood taken each time was 0.15 cc. The syringes were capped immediately and the blood gases analyzed within 5 minutes. The blood exposed to air at the tip of the syringe was expelled. The blood was mixed by gentle inversion and an aliquots of 0.10 cc was injected into the blood gas analyzer.
An artery clamp was placed on the tail (one inch from the tip of the tail) for a short duration until an escape response occurred (i.e. tail-flick or vocalization). The escape response latency was recorded by means of a stopwatch. A cutoff time of 20 sec. was used to prevent unnecessary tissue damage. […] The elapsed time to elicit a pain response was recorded as the tail pinch latency in seconds. Blood gases were monitored at approximately the same time points as the tail pinch test.
(§5) The ED50 values for analgesia potency and respiratory depression were determined to calculate the safety or therapeutic ratio, which is defined as the respiratory depression ED50 divided by analgesia ED50.

rats [4] = experiment: Respiratory depression by blood gas (pCO2) monitoring in rats; assay type: in vivo; details: rat; for Respiratory Depression % Units Baseline pCO2: 0.30 mg/kg i.v.; for Mortality due to respiratory depression / Effect on blood pCO2 levels in words: i.v.; for Safety Ratio (respiratory depression ED50 divided by analgesia ED50): intravenous
Protocol: as §3, §4
(§6) The gas analyzer was well maintained and operated. Calibrations (low, normal and high) were done at the beginning of every day of testing. The sample lines, co-oximeter and the blood gas electrode were cleaned regularly at the end of every day of testing. Hematocrit calibration (high and low) was scheduled on a weekly basis and tubing, sample and pinch valve were replaced on a monthly basis.
as §5

[5] = as above; assay type: in vivo; details: male, Wistar Hannover, in vivo; rat, intravenous
Protocol: as §3, §4, §6, §5

δ opioid receptor = molecular target: T5, δ opioid receptor (Rattus norvegicus, UniProt P33533); experiment: Radioligand binding, [3H]Deltorphin II competition, rat brain membranes; details: read-out: Rat Brain Membrane K1 (nM) δ
T5 construct: tissue Pel-Freeze Biological Inc. (Rogers, Ark.); host or cells: rat whole brain membranes
Protocol: as §1, §2

Row | SMILES | Ki (κ opioid receptor) | Ki (μ opioid receptor) | EC50 [1] | EC50 [2] | Analgesia (delay of response to tail pinch) (rats [3]; 4 min.) | Analgesia (delay of response to tail pinch) (rats [3]; 8 min.) | Analgesia (delay of response to tail pinch) (rats [3]; 32 min.) | ED50 (rats [3]) | Respiratory Depression % Units Baseline pCO2 (rats [4]; 4 min.) | Respiratory Depression % Units Baseline pCO2 (rats [4]; 8 min.) | Respiratory Depression % Units Baseline pCO2 (rats [4]; 32 min.) | Mortality due to respiratory depression (rats [4]) | Safety Ratio (respiratory depression ED50 divided by analgesia ED50) (rats [4]) | ED50 [5] | Ki (δ opioid receptor) | Analgesic effect in words (rats [3]) | Effect on blood pCO2 levels in words (rats [4])
1 | C=CCN1C[C@H](C)N([C@@H](c2ccsc2)c2cccc(O)c2)C[C@H]1C [Compound 5, (+)-3-((R)-((2S,5R)-4-allyl-2,5-dimethyl-1-piperazinyl)(3-thienyl)methyl)phenol] | 1.73 nM | 0.75 nM | 79.3 nM | 1.3 nM | 20 s | 20 s | 20 s | 0.03 mg/kg | 120% | 78% | 45% | several of the test subjects died | 2.2 | 0.067 mg/kg | 113 nM | – | –
2 | C=CCN1C[C@@H](C)N([C@@H](c2ccsc2)c2cccc(O)c2)C[C@@H]1C (relative stereo) [Compound 1, (±)3-((R*)-((2R*,5S*)-4-allyl-2,5-dimethyl-1-piperazinyl)(3-thienyl)methyl)phenol] | – | – | – | – | – | – | – | – | – | – | – | – | – | – | – | only limited analgesia for a short time | –
3 | C=CCN1C[C@@H](C)N([C@H](c2ccsc2)c2cccc(O)c2)C[C@@H]1C [Compound 6, (−)3-((S)-((2R,5S)-4-allyl-2,5-dimethyl-1-piperazinyl)(3-thienyl)methyl)phenol] | 16 nM | 60 nM | > 1000 nM | 282 nM | 0 s | 0 s | 0 s | > 6 mg/kg | 0% | 0% | 0% | – | – | > 6 mg/kg | 13 nM | no measurable analgesic effect | no effect on blood pCO2 levels
4 | C=CCN1C[C@H](C)N([C@@H](c2ccsc2)c2cccc(O)c2)C[C@H]1C (racemic) [Compound 4, (±)3-((R*)-((2S*,5R*)-4-allyl-2,5-dimethyl-1-piperazinyl)(3-thienyl)methyl)phenol] | 2.34 nM | 0.18 nM | 170 nM | 58 nM | 20 s | 20 s | 10 s | 0.05 mg/kg | 117% | 91% | 43% | several of the test subjects died | 2.4 | 0.12 mg/kg | 14.9 nM | – | –
5 | C=CCN1C[C@@H](C)N([C@@H](c2ccsc2)c2cccc(O)c2)C[C@@H]1C [Compound 3, (+)3-((R)-((2R,5S)-4-allyl-2,5-dimethyl-1-piperazinyl)(3-thienyl)methyl)phenol] | 100 nM | 658 nM | > 1000 nM | > 1000 nM | 0 s | 0 s | 0 s | > 6 mg/kg | 0% | 0% | 0% | – | – | > 6 mg/kg | 744 nM | no measurable analgesic effect | no effect on blood pCO2 levels
